ChEMBL document CHEMBL5512645, “A novel antimicrobial peptide with broad-spectrum and exceptional stability derived from the natural peptide Brevicidine” (Eur J Med Chem, 2024)
Converted amounts (≈) assume the structure as drawn. Bridge positions count the residues as written; N and C are the ends. Square brackets hold non-standard residues; d marks the D form. Peptide text beside a SMILES is read from it. * marks the point of attachment. Lauroyl = CCCCCCCCCCCC(=O)*; Decanoyl = CCCCCCCCCC(=O)*; dOrn = NCCC[C@@H](N)C(=O)O; Octanoyl = CCCCCCCC(=O)*; Orn = NCCC[C@H](N)C(=O)O

Tests used:
[1] = tested on: Erythrocyte; experiment: Hemolytic activity in mouse red blood cell assessed as hemolysis incubated for 1 hr; assay type: toxicity, cell-based
[2] = tested on: Pseudomonas aeruginosa; experiment: Antibacterial activity against Pseudomonas aeruginosa ATCC 27853 incubated for 18 to 24 hrs by broth microdilution method; assay type: functional; conditions: time 18-24 hrs
[3] = tested on: Enterococcus faecalis; experiment: Antibacterial activity against Enterococcus faecalis ATCC 29212 incubated for 18 to 24 hrs by broth microdilution method; assay type: functional; conditions: time 18-24 hrs
[4] = tested on: Staphylococcus epidermidis; experiment: Antibacterial activity against Staphylococcus epidermidis ATCC 12228 incubated for 18 to 24 hrs by broth microdilution method; assay type: functional; conditions: time 18-24 hrs
[5] = tested on: Acinetobacter baumannii; experiment: Antibacterial activity against Acinetobacter baumannii ATCC 19606 incubated for 18 to 24 hrs by broth microdilution method; assay type: functional; conditions: time 18-24 hrs
[6] = tested on: Escherichia coli; experiment: Antibacterial activity against Escherichia coli ATCC 25922 incubated for 18 to 24 hrs by broth microdilution method; assay type: functional; conditions: time 18-24 hrs
[7] = tested on: Staphylococcus aureus; experiment: Antibacterial activity against Staphylococcus aureus ATCC 25923 incubated for 18 to 24 hrs by broth microdilution method; assay type: functional; conditions: time 18-24 hrs
[8] = tested on: Klebsiella pneumoniae; experiment: Antibacterial activity against Klebsiella pneumoniae ATCC 700603 incubated for 18 to 24 hrs by broth microdilution method; assay type: functional; conditions: time 18-24 hrs
[9] = tested on: Bacillus subtilis; experiment: Antibacterial activity against Bacillus subtilis ATCC 23857 incubated for 18 to 24 hrs by broth microdilution method; assay type: functional; conditions: time 18-24 hrs

Row | SMILES | MHC [1] | MIC [2] | MIC [3] | MIC [4] | MIC [5] | MIC [6] | MIC [7] | MIC [8] | MIC [9]
1 | CCC(C)CCC(=O)N[C@H](CC(N)=O)C(=O)N[C@H](Cc1ccc(O)cc1)C(=O)N[C@H](Cc1c[nH]c2ccccc12)C(=O)N[C@H](CCCCN)C(=O)N[C@@H](CCCCN)C(=O)NCC(=O)N[C@H](CCCCN)C(=O)N[C@@H](Cc1c[nH]c2ccccc12)C(=O)N[C@@H]1C(=O)N[C@@H]([C@@H](C)CC)C(=O)NCC(=O)N[C@@H](CO)C(=O)O[C@@H]1C (stereo partly drawn) | 128 µM | 4 µM (≈ 6.25 µg/mL) | 64 µM (≈ 100 µg/mL) | 32 µM (≈ 50 µg/mL) | 8 µM (≈ 12.5 µg/mL) | 4 µM (≈ 6.25 µg/mL) | 64 µM (≈ 100 µg/mL) | 8 µM (≈ 12.5 µg/mL) | 32 µM (≈ 50 µg/mL)
2 | CCC(C)CCC(=O)N[C@H](CC(N)=O)C(=O)N[C@H](Cc1ccc(O)cc1)C(=O)N[C@H](Cc1c[nH]c2ccccc12)C(=O)N[C@H](CCN)C(=O)N[C@@H](CCN)C(=O)NCC(=O)N[C@H](CCN)C(=O)N[C@@H](Cc1c[nH]c2ccccc12)C(=O)N[C@@H]1C(=O)N[C@@H]([C@@H](C)CC)C(=O)NCC(=O)N[C@@H](CO)C(=O)O[C@@H]1C (stereo partly drawn) | 128 µM | 4 µM (≈ 5.91 µg/mL) | 64 µM (≈ 94.6 µg/mL) | 8 µM (≈ 11.8 µg/mL) | 32 µM (≈ 47.3 µg/mL) | 4 µM (≈ 5.91 µg/mL) | 64 µM (≈ 94.6 µg/mL) | 8 µM (≈ 11.8 µg/mL) | 16 µM (≈ 23.6 µg/mL)
3 | CCCCCCCCCC(=O)N[C@H](CCCN)C(=O)N[C@H](Cc1ccc(O)cc1)C(=O)N[C@H](Cc1c[nH]c2ccccc12)C(=O)N[C@H](CCCN)C(=O)N[C@@H](CCCN)C(=O)NCC(=O)N[C@H](CCCN)C(=O)N[C@@H](Cc1c[nH]c2ccccc12)C(=O)N[C@@H]1C(=O)N[C@@H]([C@@H](C)CC)C(=O)NCC(=O)N[C@@H](CO)C(=O)O[C@@H]1C | 128 µM | 8 µM (≈ 12.5 µg/mL) | 64 µM (≈ 100 µg/mL) | 16 µM (≈ 25 µg/mL) | 16 µM (≈ 25 µg/mL) | 8 µM (≈ 12.5 µg/mL) | 32 µM (≈ 50 µg/mL) | 16 µM (≈ 25 µg/mL) | 16 µM (≈ 25 µg/mL)
4 | CCC(C)CCC(=O)N[C@H](CCCN)C(=O)N[C@H](Cc1ccc(O)cc1)C(=O)N[C@H](Cc1c[nH]c2ccccc12)C(=O)N[C@H](CCCN)C(=O)N[C@@H](CCCN)C(=O)N[C@@H](CCCN)C(=O)N[C@H](CCCN)C(=O)N[C@@H](Cc1c[nH]c2ccccc12)C(=O)N[C@@H]1C(=O)N[C@@H]([C@@H](C)CC)C(=O)NCC(=O)N[C@@H](CO)C(=O)O[C@@H]1C (stereo partly drawn) | 128 µM | 1 µM (≈ 1.58 µg/mL) | > 128 µM | 16 µM (≈ 25.2 µg/mL) | 16 µM (≈ 25.2 µg/mL) | 8 µM (≈ 12.6 µg/mL) | 32 µM (≈ 50.5 µg/mL) | 2 µM (≈ 3.15 µg/mL) | 4 µM (≈ 6.31 µg/mL)
5 | CCCCCCCCCC(=O)N[C@H](CC(N)=O)C(=O)N[C@H](Cc1ccc(O)cc1)C(=O)N[C@H](Cc1c[nH]c2ccccc12)C(=O)N[C@H](CCCN)C(=O)N[C@@H](CCCN)C(=O)NCC(=O)N[C@H](CCCN)C(=O)N[C@@H](Cc1c[nH]c2ccccc12)C(=O)N[C@@H]1C(=O)N[C@@H]([C@@H](C)CC)C(=O)NCC(=O)N[C@@H](CO)C(=O)O[C@@H]1C (Decanoyl-[dN][dY][dW][dOrn][Orn]G[dOrn]WTIGS; ester 9-C) | 8 µM | 2 µM (≈ 3.12 µg/mL) | 32 µM (≈ 50 µg/mL) | 4 µM (≈ 6.25 µg/mL) | 2 µM (≈ 3.12 µg/mL) | 2 µM (≈ 3.12 µg/mL) | 16 µM (≈ 25 µg/mL) | 2 µM (≈ 3.12 µg/mL) | 4 µM (≈ 6.25 µg/mL)
6 | CCCCCCCCCCCC(=O)N[C@H](CC(N)=O)C(=O)N[C@H](Cc1ccc(O)cc1)C(=O)N[C@H](Cc1c[nH]c2ccccc12)C(=O)N[C@H](CCCN)C(=O)N[C@@H](CCCN)C(=O)NCC(=O)N[C@H](CCCN)C(=O)N[C@@H](Cc1c[nH]c2ccccc12)C(=O)N[C@@H]1C(=O)N[C@@H]([C@@H](C)CC)C(=O)NCC(=O)N[C@@H](CO)C(=O)O[C@@H]1C (Lauroyl-[dN][dY][dW][dOrn][Orn]G[dOrn]WTIGS; ester 9-C) | 4 µM | 2 µM (≈ 3.18 µg/mL) | 16 µM (≈ 25.4 µg/mL) | 4 µM (≈ 6.36 µg/mL) | 4 µM (≈ 6.36 µg/mL) | 8 µM (≈ 12.7 µg/mL) | 16 µM (≈ 25.4 µg/mL) | 8 µM (≈ 12.7 µg/mL) | 4 µM (≈ 6.36 µg/mL)
7 | CCCCCCCC(=O)N[C@H](CC(N)=O)C(=O)N[C@H](Cc1ccc(O)cc1)C(=O)N[C@H](Cc1c[nH]c2ccccc12)C(=O)N[C@H](CCCN)C(=O)N[C@@H](CCCN)C(=O)NCC(=O)N[C@H](CCCN)C(=O)N[C@@H](Cc1c[nH]c2ccccc12)C(=O)N[C@@H]1C(=O)N[C@@H]([C@@H](C)CC)C(=O)NCC(=O)N[C@@H](CO)C(=O)O[C@@H]1C (Octanoyl-[dN][dY][dW][dOrn][Orn]G[dOrn]WTIGS; ester 9-C) | 64 µM | 2 µM (≈ 3.07 µg/mL) | 64 µM (≈ 98.2 µg/mL) | 16 µM (≈ 24.5 µg/mL) | 4 µM (≈ 6.14 µg/mL) | 2 µM (≈ 3.07 µg/mL) | 32 µM (≈ 49.1 µg/mL) | 4 µM (≈ 6.14 µg/mL) | 8 µM (≈ 12.3 µg/mL)
8 | CCC(C)CCC(=O)N[C@H](CC(N)=O)C(=O)N[C@H](Cc1ccc(-c2ccccc2)cc1)C(=O)N[C@H](Cc1c[nH]c2ccccc12)C(=O)N[C@H](CCCN)C(=O)N[C@@H](CCCN)C(=O)NCC(=O)N[C@H](CCCN)C(=O)N[C@@H](Cc1c[nH]c2ccccc12)C(=O)N[C@@H]1C(=O)N[C@@H]([C@@H](C)CC)C(=O)NCC(=O)N[C@@H](CO)C(=O)O[C@@H]1C (mixture of isomers) | 8 µM | 8 µM | 32 µM | 16 µM | 8 µM | 16 µM | 16 µM | 16 µM | 8 µM
9 | CCC(C)CCC(=O)N[C@H](CC(N)=O)C(=O)N[C@H](C)C(=O)N[C@H](Cc1c[nH]c2ccccc12)C(=O)N[C@H](CCCN)C(=O)N[C@@H](CCCN)C(=O)NCC(=O)N[C@H](CCCN)C(=O)N[C@@H](Cc1c[nH]c2ccccc12)C(=O)N[C@@H]1C(=O)N[C@@H]([C@@H](C)CC)C(=O)NCC(=O)N[C@@H](CO)C(=O)O[C@@H]1C (mixture of isomers) | 128 µM | 2 µM | > 128 µM | 8 µM | 32 µM | 16 µM | > 128 µM | 32 µM | 16 µM
10 | CCC(C)CCC(=O)N[C@H](CC(N)=O)C(=O)N[C@H](Cc1ccc2ccccc2c1)C(=O)N[C@H](Cc1c[nH]c2ccccc12)C(=O)N[C@H](CCCN)C(=O)N[C@@H](CCCN)C(=O)NCC(=O)N[C@H](CCCN)C(=O)N[C@@H](Cc1c[nH]c2ccccc12)C(=O)N[C@@H]1C(=O)N[C@@H]([C@@H](C)CC)C(=O)NCC(=O)N[C@@H](CO)C(=O)O[C@@H]1C (mixture of isomers) | 8 µM | 4 µM | 32 µM | 16 µM | 8 µM | 8 µM | 32 µM | 8 µM | 8 µM
11 | CCC(C)CCC(=O)N[C@H](CC(N)=O)C(=O)N[C@H](Cc1ccc(C)cc1)C(=O)N[C@H](Cc1c[nH]c2ccccc12)C(=O)N[C@H](CCCN)C(=O)N[C@@H](CCCN)C(=O)NCC(=O)N[C@H](CCCN)C(=O)N[C@@H](Cc1c[nH]c2ccccc12)C(=O)N[C@@H]1C(=O)N[C@@H]([C@@H](C)CC)C(=O)NCC(=O)N[C@@H](CO)C(=O)O[C@@H]1C (mixture of isomers) | 32 µM | 4 µM | 64 µM | 16 µM | 8 µM | 8 µM | 32 µM | 8 µM | 8 µM
12 | CCC(C)CCC(=O)N[C@H](CC(N)=O)C(=O)N[C@H](Cc1ccc(N)cc1)C(=O)N[C@H](Cc1c[nH]c2ccccc12)C(=O)N[C@H](CCCN)C(=O)N[C@@H](CCCN)C(=O)NCC(=O)N[C@H](CCCN)C(=O)N[C@@H](Cc1c[nH]c2ccccc12)C(=O)N[C@@H]1C(=O)N[C@@H]([C@@H](C)CC)C(=O)NCC(=O)N[C@@H](CO)C(=O)O[C@@H]1C (mixture of isomers) | 128 µM | 4 µM | > 128 µM | 64 µM | 32 µM | 8 µM | 128 µM | 16 µM | 16 µM
